In patent publication US20210139517A1, “BICYCLIC HETEROARYL COMPOUNDS AND USES THEREOF” (Revolution Medicines, Inc., priority 2019, published 2021):
pIC50, pKd: −log10 of the molar value. Read-outs that look alike come from different tables or passages of the source.

What was measured:
[1] = target: T1, SOS1 nucleotide exchange of wild-type KRAS (SOS1 catalytic domain residues 564-1049; KRAS residue 1-169) (Homo sapiens, UniProt Q07889); test: Inhibition of SOS1 nucleotide exchange activity of KRAS (TR-FRET); type: biochemical
T1 sequence (Q07889 564-1049): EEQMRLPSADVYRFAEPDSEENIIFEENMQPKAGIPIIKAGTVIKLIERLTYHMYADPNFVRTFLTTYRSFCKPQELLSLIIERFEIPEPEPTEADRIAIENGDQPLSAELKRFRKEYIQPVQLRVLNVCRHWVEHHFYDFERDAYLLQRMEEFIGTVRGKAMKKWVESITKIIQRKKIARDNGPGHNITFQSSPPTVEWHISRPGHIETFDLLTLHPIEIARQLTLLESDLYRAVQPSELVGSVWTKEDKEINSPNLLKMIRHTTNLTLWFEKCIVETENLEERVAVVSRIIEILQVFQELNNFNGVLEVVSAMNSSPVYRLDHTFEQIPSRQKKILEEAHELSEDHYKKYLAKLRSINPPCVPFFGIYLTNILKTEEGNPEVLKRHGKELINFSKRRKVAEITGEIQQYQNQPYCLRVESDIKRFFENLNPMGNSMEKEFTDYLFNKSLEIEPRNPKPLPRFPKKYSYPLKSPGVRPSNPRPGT

[2] = target: T2, SOS1 catalytic domain (residues 564-1049) (Homo sapiens, UniProt Q07889); test: SOS1 SPR binding affinity assay (Biacore 8K)
T2 sequence (Q07889 564-1049): T1 sequence (Q07889 564-1049)

[3] = system: SOS1 function in cells: cellular pERK in PC-9 cells (EGFR Ex19Del); test: pERK potency assay in PC-9 cells (AlphaLISA SureFire Ultra p-ERK1/2); type: cell-based; settings: 1 hour incubation
Description: The purpose of this assay is tomeasure the ability of test compounds to inhibit SOS1 function in cells. SOS1 activates RAS proteins by catalyzing the conversion of RAS-GDP to RAS-GTP in response to receptor tyrosine kinase activation. […] The procedure described below measures the level of cellular pERK in response to test compounds in PC-9 cells (EGFR Ex19Del).
PC-9 cells were grown and maintained using media and procedures recommended by the ATCC. On the day prior to compound addition, cells were plated in 384-well cell culture plates (40 μL/well) and grown overnight in a 37° C., 5% CO2 incubator. Test compounds were prepared in 10, 3-fold dilutions in DMSO, with a top concentration of 10 mM. On the day of the assay, 40 nL of test compound was added to each well of cell culture plate using an Echo550 liquid handler (LabCyte). Concentrations of test compound were tested in duplicate with highest test concentration being 10 μM. After compound addition, cells were incubated for 1 hour at 37° C., 5% CO2. Following incubation, culture medium was removed and cells were washed once with phosphate buffered saline.
Cellular pERK level was determined using the AlphaLISA SureFire Ultra p-ERK1/2 Assay Kit (PerkinElmer). Cells were lysed in 25 μL lysis buffer, with shaking at 600 RPM at room temperature for 15 minutes. Lysate (10 μL) was transferred to a 384-well Opti-plate (PerkinElmer) and 5 μL acceptor mix was added. The plate was centrifuged at 1000 RPM for 1 minute, and incubated in the dark for 2 hours. Following this incubation, 5 μL of donor mix was added, the plate was sealed and centrifuged at 1000 RPM for 1 minute, and the mixture was incubated for 2 hours at room temperature. Signal was read on an Envision plate reader (PerkinElmer) using standard AlphaLISA settings. Analysis of raw data was carried out in Excel (Microsoft) and Prism (GraphPad). Signal was plotted vs. the decadal logarithm of compound concentration, and IC50 was determined by fitting a 4-parameter sigmoidal concentration response model.

[4] = SOS1 nucleotide exchange of wild-type KRAS, three replicates, four-parameter logistic fit, read-out: TR-FRET IC50
[5] = avi-tagged SOS1 catalytic domain immobilized on streptavidin chip, equilibrium 1:1 binding fit, read-out: SOS1 SPR Equilibrium Kd

SMILES	pIC50 [1, 4]	pKd [2, 5]	further results
CN=S1(=O)CC=C(c2cc3c(N[C@H](C)c4cccc(C(F)F)c4F)ncnc3n(C)c2=O)CC1 (stereo partly drawn) [Example 24, 4-(((R)-1-(3-(difluoromethyl)-2-fluorophenyl)ethyl)amino)-8-methyl-6-(1-(methylimino)-1-oxido-1,2,3,6-tetrahydro-1λ^6-thiopyran-4-yl)pyrido[2,3-d]pyrimidin-7(8H)-one]	7.87	–	–
C[C@@H](Nc1ncnc2c1cc(N1CCOCC1)c(=O)n2C)c1cccc(C(F)(F)CO)c1 [Example 2, (R)-4-((1-(3-(1,1-difluoro-2-hydroxyethyl)phenyl)ethyl)amino)-8-methyl-6-morpholinopyrido[2,3-d]pyrimidin-7(8H)-one]	7.89	8.13	–
C[C@@H](Nc1ncnc2c1cc(C1(N)CCOCC1)c(=O)n2C)c1cccc(C(F)F)c1F [Example 31, 6-(4-aminooxan-4-yl)-4-{[(1R)-1-[3-(difluoromethyl)-2-fluorophenyl]ethyl]amino}-8-methyl-7H,8H-pyrido-[2,3-d]pyrimidin-7-one]	7.50	7.37	–
C[C@@H](Nc1ncnc2c1cc(C1(F)CCS(=O)(=O)CC1)c(=O)n2C)c1cccc(C(F)F)c1F [Example 29, 4-(4-{[(1R)-1-[3-(difluoromethyl)-2-fluorophenyl]ethyl]amino}-8-methyl-7-oxo-7H,8H-pyrido[2,3-d]-pyrimidin-6-yl)-4-fluoro-1λ^6-thiane-1,1-dione]	7.30	7.44	–
C[C@@H](Nc1ncnc2c1cc(N1CCOCC1)c(=O)n2C1CC1)c1cccc(C(F)(F)F)c1 [Example 11, 8-cyclopropyl-6-(morpholin-4-yl)-4-{[(1R)-1-[3-(trifluoromethyl)phenyl]ethyl]amino}-7H,8H-pyrido[2,3-d]pyrimidin-7-one]	7.48	–	pIC50 ([3]; Homo sapiens, PC-9, 1 h): 6.53
CO[C@]1(c2cc3c(N[C@H](C)c4cccc(C(F)F)c4F)ncnc3n(C)c2=O)CCN(C(C)=O)C1 [Example 32-19]	8.05	8.16	–
C[C@@H](Nc1ncnc2c1cc(C1(O)CCS(=O)(=O)CC1)c(=O)n2C)c1cccc(C(F)F)c1F [Example 28, 4-(4-{[(1R)-1-[3-(difluoromethyl)-2-fluorophenyl]-ethyl]amino}-8-methyl-7-oxo-7H,8H-pyrido[2,3-d]pyrimidin-6-yl)-4-hydroxy-1λ^6-thiane-1,1-dione]	7.69	7.35	–
C[C@@H](Nc1ncnc2c1cc(C(=O)N1CC3CCC(C1)O3)c(=O)n2C)c1cccc(C(F)F)c1F [Example 26-19]	7.18	6.83	–
C[C@@H](Nc1ncnc2c1cc(C1CCNCC1O)c(=O)n2C)c1cccc(C(F)F)c1F (stereo partly drawn) [Example 34, 4-(((R)-1-(3-(difluoromethyl)-2-fluorophenyl)ethyl)amino)-6-(3-hydroxypiperidin-4-yl)-8-methylpyrido[2,3-d]pyrimidin-7(8H)-one]	7.20	7.14	–
Cc1nc(N[C@H](C)c2cc(N)cc(C(F)(F)F)c2)c2cc(C3=CCOCC3)c(=O)n(C)c2n1 [Example 7, (R)-4-((1-(3-amino-5-(trifluoromethyl)phenyl)ethyl)amino)-6-(3,6-dihydro-2H-pyran-4-yl)-2,8-dimethylpyrido[2,3-d]pyrimidin-7(8H)-one]	6.81	6.93	–
Cc1nc(N[C@H](C)c2cccc(C(F)(F)CO)c2)c2cc(C3=CCOCC3)c(=O)n(C)c2n1 [Example 3, (R)-4-((1-(3-(1,1-difluoro-2-hydroxyethyl)phenyl)ethyl)amino)-6-(3,6-dihydro-2H-pyran-4-yl)-2,8-dimethylpyrido[2,3-d]pyrimidin-7(8H)-one]	7.46	7.66	–
COC1(c2cc3c(N[C@H](C)c4cccc(C(F)F)c4F)ncnc3n(C)c2=O)CCS(=O)(=O)CC1 [Example 32, 4-(4-{[(1R)-1-[3-(difluoro-methyl)-2-fluorophenyl]ethyl]amino}-8-methyl-7-oxo-7H,8H-pyrido[2,3-d]pyrimidin-6-yl)-4-methoxy-1λ^6-thiane-1,1-dione]	–	7.40	–
C[C@@H](Nc1ncnc2c1cc(C1CC[S+]([O-])CC1)c(=O)n2C)c1cccc(C(F)F)c1F (stereo partly drawn) [Example 25, (R)-4-((1-(3-(difluoromethyl)-2-fluorophenyl)ethyl)amino)-8-methyl-6-(1-oxidotetrahydro-2H-thiopyran-4-yl)pyrido[2,3-d]pyrimidin-7(8H)-one]	7.80	7.71	–
C[C@@H](Nc1ncnc2c1cc(C1CC3(C1)CS(=O)(=O)C3)c(=O)n2C)c1cccc(C(F)F)c1F [Example 33, 6-(4-{[(1R)-1-[3-(difluoromethyl)-2-fluorophenyl]ethyl]amino}-8-methyl-7-oxo-7H,8H-pyrido[2,3-d]pyrimi-din-6-yl)-2λ^6-thiaspiro[3.3]heptane-2,2-dione]	7.53	7.48	–
Cc1nc(N[C@H](C)c2cccc(C(F)(F)CO)c2)c2cc(C3=CCNCC3)c(=O)n(C)c2n1 [Example 4, (R)-4-((1-(3-(1,1-difluoro-2-hydroxyethyl)phenyl)ethyl)amino)-2,8-dimethyl-6-(1,2,3,6-tetrahydropyridin-4-yl)pyrido[2,3-d]pyrimidin-7(8H)-one]	–	–	pKd [2]: 8.10; pIC50 [1]: 7.97
C[C@@H](Nc1ncnc2c1cc(C1=CC[S+]([O-])CC1)c(=O)n2C)c1cccc(C(F)F)c1F (stereo partly drawn) [Example 22, 4-(((R)-1-(3-(difluoromethyl)-2-fluorophenyl)ethyl)amino)-8-methyl-6-(1-oxido-3,6-dihydro-2H-thiopyran-4-yl)pyrido[2,3-d]pyrimidin-7(8H)-one]	6.53	7.47	–
C[C@@H](Nc1ncnc2c1cc(Sc1ccccc1)c(=O)n2C)c1cccc(C(F)F)c1F [Example 30, 4-{[(1R)-1-[3-(difluoromethyl)-2-fluorophenyl]ethyl]amino}-8-methyl-6-(phenylsulfanyl)-7H,8H-pyrido[2,3-d]pyrimidin-7-one]	4.96	–	–
Cc1nc(N[C@H](C)c2cccc(C(F)F)c2F)c2cc(C3CCN(CC(F)(F)F)CC3)c(=O)n(C)c2n1 [Example 8-17]	–	–	pIC50 [3]: 6.27
COC1(c2cc3c(N[C@H](C)c4cccc(C(F)F)c4F)ncnc3n(C)c2=O)CCC2(CC1)CS(=O)(=NC1CC1)C2 (stereo partly shown) [Example 32-83]	–	–	pIC50 [3]: 6.49
CC(=O)N1CCC(OC2CC2)(c2cc3c(N[C@H](C)c4cccc(C(F)F)c4F)ncnc3n(C)c2=O)C1 (stereo partly shown) [Example 32-70]	–	–	pIC50 [3]: 6.46
Cc1nc(N[C@H](C)c2cccc(C(F)(F)F)c2)c2cc(N3CCOCC3)c(=O)n(C)c2n1 [Example 10, 2,8-dimethyl-6-(morpolin-4-yl)-4-[[(1R)-1-[3-(trifluoromethyl)phenyl]ethyl]amino]-7H,8H-pyrido[2,3-d]pyrimidin-7-one]	6.75	–	pIC50 ([3]; Homo sapiens, PC-9, 1 h): 6.10
CC(=O)N1CCC(c2cc3c(N[C@H](C)c4cccc(C(F)F)c4F)nc(C)nc3n(C)c2=O)CC1 [Example 8-9]	–	–	pIC50 [3]: 7.06
Cc1nc(N[C@H](C)c2cc(N)cc(C(F)(F)F)c2)c2cc(C3CCNCC3)c(=O)[nH]c2n1 [Example 8, (R)-4-((1-(3-amino-5-(trifluoromethyl)phenyl)ethyl)amino)-2-methyl-6-(piperidin-4-yl)pyrido[2,3-d]pyrimidin-7(8H)-one]	7.65	–	–
C[C@@H](Nc1ncnc2c1cc(C1=CCOCC1)c(=O)n2C)c1cccc(C(F)(F)F)c1 [Example 5, (R)-6-(3,6-dihydro-2H-pyran-4-yl)-8-methyl-4-((1-(3-(trifluoromethyl)phenyl)ethyl)amino)pyrido[2,3-d]pyrimidin-7(8H)-one]	6.95	–	–
Cc1nc(N[C@H](C)c2cccc(C(F)F)c2F)c2cc(-c3cncnc3)c(=O)n(C)c2n1 [Example 21-4]	–	–	pIC50 [3]: 6.44
